Entries after “also recorded” stand apart in the source; their conditions may differ.

Experimental findings from US9637738B2, “Methods and agents to increase therapeutic dystrophin expression in muscle” (Reveragen Biopharma, Inc., priority 2013, dated 2017) are described below.

The subject of data set [1] is human dystrophin 3′UTR. The data set is described as follows: Dys 3′UTR luciferase reporter assay in C2C12 myoblasts co-transfected with microRNA mimics. In kind it is cell-based, mouse. The following applies: C2C12 myoblasts co-transfected with 200 ng Dys 3′UTR reporter and 50 nM microRNA mimic, Renilla luciferase normalized to internal control. For orientation: A reporter such as luciferase makes a cellular process visible.

Data set [2] has as its system miR-146b. The data set is described as follows: qRT-PCR of miR-146b in gastrocnemius of drug-treated mdx23 mice. Type of data set: in vivo, mouse. The following applies: 5 mg/kg prednisolone or 15 mg/kg VBP-15. As for the experimental part:
(§1) FIG. 8—Treatment with anti-inflammatories modulates dystrophin-targeting microRNAs. (a) VBP15 and prednisolone reduces dystrophin-targeting microRNA levels; miR-146a, miR-146b and miR-223 levels in the gastrocnemius of wild-type mice and vehicle, prednisolone, or […] mdx23 mice were assessed via qPCR; results were normalized to wild-type levels. […] All statistical analyses were performed in Prism Graph Pad 5.0, One-Way ANOVA with Bonferroni post-test (*p<0.05; **p<0.01).
(§2) 20 mg frozen muscle was homogenized in TriZol reagent (Invitrogen), followed by RNA extraction. microRNAs were quantified with 7900HT Fast Real-Time PCR system using mouse-specific TaqMan microRNA assays with U6 snRNA as a control. Results were calculated as above using the 2(−ΔΔC(T)) method (Schmittgen, 2001).
(§3) Mdx23 (C57BL/10ScSn-Dmd/J) mice (The Jackson laboratories) were dosed with 5 mg/kg prednisolone or 15 mg/kg […] as previously reported (Heier et al, 2013).
(§4) Exon skipping therapies in DMD will likely be used in combination with either current glucocorticoid standards of care, or next-generation steroid derivatives moving towards clinical use (Heier et al 2012). Because these drugs affect transcriptional regulation and/or inflammatory miRNA signaling, we tested what their effects on levels of dystrophin-regulating miRNAs might be.
For orientation: Quantitative PCR measures a nucleic acid by following its amplification.

The test system of data set [3] is miR-382. The data set is described as follows: qRT-PCR of miR-382 in gastrocnemius of drug-treated mdx23 mice. In kind it is in vivo, mouse. Conditions: 5 mg/kg prednisolone or 15 mg/kg VBP-15, p<0.05 for prednisone. On the procedure: as §1, §2, §3, §4
Data set [4] relates to miR-223. The data set is described as follows: qRT-PCR of miR-223 in gastrocnemius of drug-treated mdx23 mice. Type of data set: in vivo, mouse. The following applies: 5 mg/kg prednisolone or 15 mg/kg VBP-15. As for the experimental part: as §1, §2, §3, §4
For data set [5], the system named is miR-146a. The data set is described as follows: qRT-PCR of miR-146a in gastrocnemius of drug-treated mdx23 mice. Conditions: 5 mg/kg prednisolone or 15 mg/kg VBP-15, p<0.01. Type of data set: in vivo, mouse. On the procedure:
as §1, §2, §3, §4

For data set [6], the system named is miR-320a. The data set is described as follows: qRT-PCR of miR-320a in gastrocnemius of drug-treated mdx23 mice. In kind it is in vivo, mouse. The following applies: 5 mg/kg prednisolone or 15 mg/kg VBP-15, p=0.22 for prednisone. As for the experimental part: as §1, §2, §3, §4
Data set [7] has as its system dystrophin protein. The data set is described as follows: Systemic delivery of PMO to mdx23 mice, dystrophin rescue by SILAM mass spectrometry and immunoblot. In kind it is in vivo, mouse. Conditions: single 800 mg/kg intravenous injection, 1 month post-injection, SILAM mass spectrometry. On the procedure: FIG. 7—Dystrophin-regulating microRNAs levels promote observed variability of dystrophin protein production in PMO-treated mdx mice. (a) Dystrophin levels were analyzed via mass spec and miRNA levels were assessed in the diaphragm, TA and Gastroc. […] All statistical analyses were performed in Prism Graph Pad 5.0, One-Way ANOVA with Bonferroni post-test (*p<0.05; **p<0.01; ***p<0.001). (b) The tricep, TA and gastroc in 3 PMO-treated mice were chosen for analysis. Dystrophin levels were analyzed via mass spec and microRNA levels were analyzed via qPCR. For analysis, Each miRNA's values were grouped by muscle, mean and SD were calculated. The deviation from the appropriate mean was calculated for each individual miRNA value. These deviations were assigned a score of low, mid or high, defined by the following rule: those falling within 0.5 SD of the mean were assigned a “mid” score, those greater than 0.5 SD of the mean were assigned a “high score”, and those less than 0.5 SD of the mean were assigned a “low” score. Mean % dystrophin levels were then compared using an independent t-test. […]
We tested whether variable levels of dystrophin-regulating microRNAs in muscle […] of dystrophin rescue by exon skipping. […] From one mouse, adjacent cryosections of the tibialis anterior (TA), gastrocnemius, and diaphragm muscles were analyzed for dystrophin protein content by SILAM mass spectrometry (Brown et al. 2013) and immunoblotting, and for dystrophin-regulating microRNA content by TaqMan (real time PCR) assays (FIG. 7a).

For “miR-223: microRNA mimic; hsa-miR-223 3′-ACCCCAUAAACUGUUUGACUGU-5′ (SEQ ID NO: 5) (listed as RNA, chemistry not given here; listed 3' to 5'; listed as Homo sapiens)”, the “luciferase protein expression from Dys 3′UTR reporter” value (“luciferase protein expression” below) in data set [1] was “significantly inhibited”.

In the case of `C[C@]12C=CC(=O)C=C1CC[C@@H]1[C@@H]2[C@@H](O)C[C@@]2(C)[C@H]1CC[C@]2(O)C(=O)CO` [prednisone, prednisolone], the “miR-146b levels over untreated mice” value in data set [2] is recorded as “trend of decreases”. Moreover, in data set [3], the “miR-382 levels, increase in treated mice” value is on record as “increased”. For the same compound, the “miR-223 levels over untreated mice” value in data set [4] is listed as “trend of decreases”. Also, in data set [5], the “miR-146a levels over untreated mice” value was “significantly reduced”. For the same compound, the “miR-320a levels, increase in treated mice” value in data set [6] is “increased”.

Consider “miR-382: microRNA mimic; hsa-miR-382 3′-GCUUAGGUGGUGCUUGUUGAAG-5′ (SEQ ID NO: 14) (listed as RNA, chemistry not given here; listed 3' to 5'; listed as Homo sapiens)”, for which the “luciferase protein expression” value in data set [1] is “significantly inhibited”.

Regarding “exon 23-targeting morpholino: PMO (Gene Tools): 5′-GGCCAAACCTCGGCTTACCTGAAAT-3′ (SEQ ID NO:33) (all phosphorodiamidate morpholino (PMO); listed as Mus musculus)”, in data set [7], the “dystrophin rescue in diaphragm” value is 5 % wild-type levels, the “dystrophin rescue in gastrocnemius” value is 5 % wild-type levels and the “dystrophin rescue in tibialis anterior (TA)” value came to 40 % wild-type levels.

For the compound “miR-146a: microRNA mimic; hsa-miR-146a 3′-UUGGGUACCUUAAGUCAAGAGU-5′ (SEQ ID NO: 1) (listed as RNA, chemistry not given here; listed 3' to 5'; listed as Homo sapiens)”, the “luciferase protein expression” value in data set [1] is recorded as “significantly inhibited”.

Take “miR-374a: microRNA mimic; hsa-miR-374a 3′-GUGAAUAGUCCAACAUAAUAUU-5′ (SEQ ID NO: 9) (listed as RNA, chemistry not given here; listed 3' to 5'; listed as Homo sapiens)”: the “luciferase protein expression” value in data set [1] is given as “significantly inhibited; also recorded: most potent downregulation; also recorded: strong inhibition”.

Turning to `C[C@@H]1CC2C3CCC4=CC(=O)C=C[C@]4(C)C3=CC[C@]2(C)[C@@]1(O)C(=O)CO` (stereo partly drawn) [VBP-15, (10S,13S,16R,17R)-17-hydroxy-17-(2-hydroxyacetyl)-10,13,16-trimethyl-6,7,8,10,12,13,14,15,16,17-decahydro-3H-cyclopenta[a]phenanthren-3-one], in data set [2], the “miR-146b levels over untreated mice” value is on record as “trend of decreases”. Further, the “miR-223 levels over untreated mice” value in data set [4] is given as “trend of decreases”. Moreover, the “miR-146a levels over untreated mice” value in data set [5] is “significantly reduced”.

On to “miR-146b-5p: microRNA mimic; hsa-miR-146b-5p 3′-UCGGAUACCUUAAGUCAAGAGU-5′ (SEQ ID NO: 3) (listed as RNA, chemistry not given here; listed 3' to 5'; listed as Homo sapiens)”, for which the “luciferase protein expression” value is “significantly inhibited” in data set [1] and “most potent downregulation; also recorded: strong inhibition” in data set [1] (listed as miR-146b).

For the compound “miR-320a: microRNA mimic; hsa-miR-320a 3′-AGCGGGAGAGUUGGGUCGAAAA-5′ (SEQ ID NO: 7) (listed as RNA, chemistry not given here; listed 3' to 5'; listed as Homo sapiens)”, the “luciferase protein expression” value in data set [1] was “significantly inhibited”.
